Data as given in patent publication US9492471B2, “Methods of treating a disease or disorder associated with Bruton'S Tyrosine Kinase” (Celgene Avilomics Research, Inc., priority 2013, dated 2016).
Like-named read-outs stand apart in the source and are kept apart here.

Experiments:
Experiment in all cases: HotSpot kinase profiling
Format in all cases: biochemical
MAPKAPK2 = biological target: T1, MAPKAPK2 (Homo sapiens, UniProt P49137)
T1 construct: purchased Reaction Biology Corp
Method in brief: (§1)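 Activity is measured by radiolabel transfer captured on P81 filters after a 2 h room-temperature reaction of kinase, substrate and cofactors. Values are percent inhibition against DMSO.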

PKCnu/PRKD3 = biological target: T2, PKCnu/PRKD3 (Homo sapiens, UniProt O94806)
T2 construct: purchased Reaction Biology Corp
T2 sequence (O94806 1-890): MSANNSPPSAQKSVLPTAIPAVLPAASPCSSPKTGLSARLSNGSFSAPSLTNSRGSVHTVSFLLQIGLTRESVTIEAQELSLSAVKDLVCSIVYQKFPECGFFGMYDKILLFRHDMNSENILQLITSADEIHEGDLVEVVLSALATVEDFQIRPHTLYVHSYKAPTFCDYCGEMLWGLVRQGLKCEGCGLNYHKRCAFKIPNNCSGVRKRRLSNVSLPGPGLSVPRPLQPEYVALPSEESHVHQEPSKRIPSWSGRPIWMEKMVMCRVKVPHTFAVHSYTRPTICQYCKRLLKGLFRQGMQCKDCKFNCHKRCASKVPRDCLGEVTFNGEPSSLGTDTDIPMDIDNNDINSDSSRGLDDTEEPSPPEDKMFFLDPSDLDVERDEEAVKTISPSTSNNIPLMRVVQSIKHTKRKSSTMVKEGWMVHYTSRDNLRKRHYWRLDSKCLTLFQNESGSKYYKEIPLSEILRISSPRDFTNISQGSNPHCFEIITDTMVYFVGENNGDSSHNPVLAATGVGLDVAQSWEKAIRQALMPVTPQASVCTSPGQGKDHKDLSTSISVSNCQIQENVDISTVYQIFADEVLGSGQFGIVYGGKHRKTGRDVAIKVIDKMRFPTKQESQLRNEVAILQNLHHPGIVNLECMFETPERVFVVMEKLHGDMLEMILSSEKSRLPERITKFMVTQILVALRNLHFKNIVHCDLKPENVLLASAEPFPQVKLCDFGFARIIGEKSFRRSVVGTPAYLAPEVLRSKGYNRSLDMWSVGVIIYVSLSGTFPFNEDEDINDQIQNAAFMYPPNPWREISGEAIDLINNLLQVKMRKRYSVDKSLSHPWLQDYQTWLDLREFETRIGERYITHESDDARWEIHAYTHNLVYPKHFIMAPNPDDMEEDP
Method in brief: as §1

BRSK2 = biological target: T3, BRSK2 (Homo sapiens, UniProt Q8IWQ3)
T3 construct: purchased Reaction Biology Corp
T3 sequence (Q8IWQ3 1-736): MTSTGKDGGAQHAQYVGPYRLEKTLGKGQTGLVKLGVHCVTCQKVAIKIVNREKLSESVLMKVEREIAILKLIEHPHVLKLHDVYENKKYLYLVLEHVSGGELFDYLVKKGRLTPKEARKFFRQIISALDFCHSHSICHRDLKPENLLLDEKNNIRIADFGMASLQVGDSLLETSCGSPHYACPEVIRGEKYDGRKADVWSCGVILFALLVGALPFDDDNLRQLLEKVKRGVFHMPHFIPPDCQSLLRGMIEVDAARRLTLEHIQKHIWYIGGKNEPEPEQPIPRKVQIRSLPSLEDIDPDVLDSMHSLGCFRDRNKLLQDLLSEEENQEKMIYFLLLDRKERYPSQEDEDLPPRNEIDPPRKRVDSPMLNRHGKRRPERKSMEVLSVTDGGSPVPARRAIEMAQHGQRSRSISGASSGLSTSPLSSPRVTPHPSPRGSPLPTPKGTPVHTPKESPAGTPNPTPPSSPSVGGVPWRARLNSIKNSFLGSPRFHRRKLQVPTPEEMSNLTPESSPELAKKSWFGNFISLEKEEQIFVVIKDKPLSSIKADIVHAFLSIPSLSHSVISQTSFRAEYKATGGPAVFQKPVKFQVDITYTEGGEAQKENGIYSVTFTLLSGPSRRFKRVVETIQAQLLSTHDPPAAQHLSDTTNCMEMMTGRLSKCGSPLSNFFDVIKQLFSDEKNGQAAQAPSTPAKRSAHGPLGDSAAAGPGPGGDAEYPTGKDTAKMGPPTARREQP
Method in brief: as §1

SRPK1 = biological target: T4, SRPK1 (Homo sapiens, UniProt Q96SB4)
T4 construct: purchased Reaction Biology Corp
T4 sequence (Q96SB4 whole entry): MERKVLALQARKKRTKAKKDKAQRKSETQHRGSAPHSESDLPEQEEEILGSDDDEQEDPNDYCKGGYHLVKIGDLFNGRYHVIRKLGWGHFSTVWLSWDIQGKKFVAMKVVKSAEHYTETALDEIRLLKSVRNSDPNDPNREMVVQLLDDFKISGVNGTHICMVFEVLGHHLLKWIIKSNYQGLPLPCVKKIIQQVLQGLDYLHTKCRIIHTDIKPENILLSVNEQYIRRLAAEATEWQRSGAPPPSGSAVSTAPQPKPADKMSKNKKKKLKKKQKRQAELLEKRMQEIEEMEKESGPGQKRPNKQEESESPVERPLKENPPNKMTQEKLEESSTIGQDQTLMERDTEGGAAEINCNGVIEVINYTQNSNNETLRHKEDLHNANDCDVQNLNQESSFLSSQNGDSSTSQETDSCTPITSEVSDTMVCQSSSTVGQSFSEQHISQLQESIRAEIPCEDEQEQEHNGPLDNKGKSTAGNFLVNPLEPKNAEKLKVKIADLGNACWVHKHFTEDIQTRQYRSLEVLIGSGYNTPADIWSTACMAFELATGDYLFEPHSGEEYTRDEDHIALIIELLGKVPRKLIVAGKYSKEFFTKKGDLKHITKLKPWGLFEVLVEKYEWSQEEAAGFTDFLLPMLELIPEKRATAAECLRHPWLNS
Method in brief: as §1

[1] = read-out: % Enzyme Activity (relative to DMSO controls) Run 1
[2] = read-out: % Enzyme Activity (relative to DMSO controls) Run 2

T1 sequence (P49137 whole entry): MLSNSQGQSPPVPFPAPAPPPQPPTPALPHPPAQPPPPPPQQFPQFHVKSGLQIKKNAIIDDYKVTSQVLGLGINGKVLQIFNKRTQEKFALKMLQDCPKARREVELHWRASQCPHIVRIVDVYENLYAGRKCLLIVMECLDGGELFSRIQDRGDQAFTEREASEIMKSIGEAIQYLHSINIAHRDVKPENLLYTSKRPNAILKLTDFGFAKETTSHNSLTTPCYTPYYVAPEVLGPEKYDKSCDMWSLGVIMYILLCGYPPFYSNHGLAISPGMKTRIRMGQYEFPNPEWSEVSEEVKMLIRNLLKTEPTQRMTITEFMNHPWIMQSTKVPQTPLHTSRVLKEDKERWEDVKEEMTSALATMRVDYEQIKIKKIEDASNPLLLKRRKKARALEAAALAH

SMILES: C=CC(=O)Nc1cccc(Nc2nc(Nc3ccc(OCCOC)c(F)c3)ncc2F)c1 [Compound 2]
- inhibition at 3 µM (MAPKAPK2): -7.86%
- remaining activity at 3 µM (MAPKAPK2; [1]): 110%
- remaining activity at 3 µM (MAPKAPK2; [2]): 106%
- inhibition at 3 µM (PKCnu/PRKD3): 20.1%
- remaining activity at 3 µM (PKCnu/PRKD3; [1]): 80.1%
- remaining activity at 3 µM (PKCnu/PRKD3; [2]): 79.8%
- inhibition at 3 µM (BRSK2): 8.66%
- remaining activity at 3 µM (BRSK2; [1]): 91%
- remaining activity at 3 µM (BRSK2; [2]): 91.7%
- inhibition at 3 µM (SRPK1): 2.23%
- remaining activity at 3 µM (SRPK1; [1]): 98.8%
- remaining activity at 3 µM (SRPK1; [2]): 96.7%
